Legend:
MDM2 = target: T1, MDM2 (Homo sapiens, UniProt Q00987); test: Inhibition test of MDM2-P53 (GST-MDM2, Biotin-P53, Anti-GST-Tb, SA-XL665); type: binding
T1 construct: made in house
How it was run: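 Compounds, serially diluted 5-fold (twelve concentrations), were shaken for 90 min at 25° C with a mix of GST-MDM2 (4 nM final), Biotin-P53, anti-GST-Tb and SA-XL665. Buffer: 1×PBS, 0.1% BSA, 5 mM DTT, 1 mM AEBSF; signal read on a microplate reader.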

[1] = system: human osteosarcoma cell line SJSA-1; test: Inhibition of proliferation of human osteosarcoma cell line SJSA-1 (DAPI staining, In Cell Analyzer); settings: Homo sapiens, SJSA-1, 72 h, read-out: IC50 (nM), inhibitory activity on proliferation of human osteosarcoma cell line SJSA-1, SJSA-1, incubated 72 h

T1 sequence (Q00987 whole entry): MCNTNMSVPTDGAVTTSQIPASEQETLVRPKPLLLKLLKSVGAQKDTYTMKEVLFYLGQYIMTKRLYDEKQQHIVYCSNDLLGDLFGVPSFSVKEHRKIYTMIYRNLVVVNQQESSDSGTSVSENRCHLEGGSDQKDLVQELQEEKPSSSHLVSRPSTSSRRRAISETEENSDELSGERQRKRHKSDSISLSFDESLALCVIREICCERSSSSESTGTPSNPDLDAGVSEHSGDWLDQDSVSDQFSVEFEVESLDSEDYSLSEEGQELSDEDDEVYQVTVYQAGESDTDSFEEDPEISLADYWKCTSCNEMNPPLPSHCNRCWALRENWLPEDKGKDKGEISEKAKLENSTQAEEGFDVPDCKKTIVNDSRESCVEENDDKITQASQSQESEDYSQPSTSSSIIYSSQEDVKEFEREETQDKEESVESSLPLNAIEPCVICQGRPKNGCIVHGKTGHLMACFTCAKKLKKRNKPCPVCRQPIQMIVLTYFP

Compound | IC50 (MDM2) [µM] | IC50 [1] [nM]
CCOc1ncc(-c2nc3c(n2C(C)C)[C@]2(C(=O)Nc4cc(Cl)ccc42)N(c2cc(Cl)ccc2F)C3=O)c(OC)n1 [Example R-97, (R)-6-chloro-5′-(5-chloro-2-fluorophenyl)-2′-(2-ethoxy-4-methoxypyrimidin-5-yl)-3′-isopropyl-3′H-spiro[dihydroindole-3,4′-pyrrolo[3,4-d]imidazole]-2,6′(5′H)-dione] | 0.00573 | 396
CCN(C)c1ccc(-c2nc3c(n2C(C)C)[C@]2(C(=O)Nc4cc(Cl)ccc42)N(c2cc(Cl)ccc2C)C3=O)c(OC)c1 [Example R-99, (R)-6-chloro-5′-(5-chloro-2-methylphenyl)-2′-(4-(ethyl(methyl)amino)-2-methoxyphenyl)-3′-isopropyl-3′H-spiro[dihydroindole-3,4′-pyrrolo[3,4-d]imidazole]-2,6′(5′H)-dione] | 0.115 | 1470
COc1cc(C2CC2)ncc1-c1nc2c(n1C(C)C)[C@]1(C(=O)Nc3cc(Cl)ccc31)N(c1cc(Cl)ccc1C)C2=O [Example R-103, (R)-6-chloro-5′-(5-chloro-2-methylphenyl)-2′-(6-cyclopropyl-4-methoxypyridin-3-yl)-3′-isopropyl-3′H-spiro[dihydroindole-3,4′-pyrrolo[3,4-d]imidazole]-2,6′(5′H)-dione] | 0.181 | 2430
COc1cc(N(C)C)ccc1-c1nc2c(n1C(C)C)[C@]1(C(=O)Nc3cc(Cl)ccc31)N(c1cccc(Cl)c1)C2=O [Example R-104, (R)-6-chloro-5′-(3-chlorophenyl)-2′-(4-(dimethylamino)-2-methoxyphenyl)-3′-isopropyl-3′H-spiro[dihydroindole-3,4′-pyrrolo[3,4-d]imidazole]-2,6′(5′H)-dione] | 0.146 | 6890
CCc1ccc(-c2nc3c(n2C(C)C)[C@]2(C(=O)Nc4cc(Cl)ccc42)N(c2cccc(Cl)c2)C3=O)c(OC)c1 [Example R-107, (R)-6-chloro-5′-(3-chlorophenyl)-2′-(4-ethyl-2-methoxyphenyl)-3′-isopropyl-3′H-spiro[dihydroindole-3,4′-pyrrolo[3,4-d]imidazole]-2,6′(5′H)-dione] | 0.536 | 3240
COc1cc(C)ccc1-c1nc2c(n1C(C)C)[C@]1(C(=O)Nc3cc(Cl)ccc31)N(c1cccc(Cl)c1)C2=O [Example R-109, (R)-6-chloro-5′-(3-chlorophenyl)-3′-isopropyl-2′-(2-methoxy-4-methylphenyl)-3′H-spiro[dihydroindole-3,4′-pyrrolo[3,4-d]imidazole]-2,6′(5′H)-dione] | 0.381 | 8200
COc1cc(N(C)C)ncc1-c1nc2c(n1C(C)C)[C@]1(C(=O)Nc3cc(Cl)ccc31)N(c1cc(Cl)ccc1C)C2=O [Example R-111, (R)-6-chloro-5′-(5-chloro-2-methylphenyl)-2′-(6-(dimethylamino)-4-methoxypyridin-3-yl)-3′-isopropyl-3′H-spiro[dihydroindole-3,4′-pyrrolo[3,4-d]imidazole]-2,6′ (5′H)-dione] | 0.11 | 561
COc1cc(N(C)C)ncc1-c1nc2c(n1C(C)C)[C@]1(C(=O)Nc3cc(Cl)ccc31)N(c1cccc(Cl)c1)C2=O [Example R-113, (R)-6-chloro-5′-(3-chlorophenyl)-2′-(6-(dimethylamino)-4-methoxypyridin-3-yl)-3′-isopropyl-3′H-spiro[dihydroindole-3,4′-pyrrolo[3,4-d]imidazole]-2,6′(5′H)-dione] | 0.0505 | 2170
COc1cc(OC)c(-c2nc3c(n2C(C)C)[C@]2(C(=O)Nc4cc(Cl)ccc42)N(c2cccc(Cl)c2)C3=O)cn1 [Example R-115, (R)-6-chloro-5′-(3-chlorophenyl)-2′-(4,6-dimethoxypyridin-3-yl)-3′-isopropyl-3′H-spiro[dihydroindole-3,4′-pyrrolo[3,4-d]imidazole]-2,6′(5′H)-dione] | 0.269 | 26.9
COc1nc(OC(C)C)ncc1-c1nc2c(n1C(C)C)[C@]1(C(=O)Nc3cc(Cl)ccc31)N(c1cc(Cl)ccc1C)C2=O [Example R-126, (R)-6-chloro-5′-(5-chloro-2-methylphenyl)-2′-(2-isopropoxy-4-methoxypyrimidin-5-yl)-3′-isopropyl-3′H-spiro[dihydroindole-3,4′-pyrrolo[3,4-d]imidazole]-2,6′(5′H)-dione] | 0.193 | 1590
CCOc1ncc(-c2nc3c(n2C(C)C)[C@]2(C(=O)Nc4cc(Cl)ccc42)N(c2cc(Cl)ccc2C)C3=O)c(OC)n1 [Example R-127, (R)-6-chloro-5′-(5-chloro-2-methylphenyl)-2′-(2-ethoxy-4-methoxypyrimidin-5-yl)-3′-isopropyl-3′H-spiro[dihydroindole-3,4′-pyrrolo[3,4-d]imidazole]-2,6′(5′H)-dione] | 0.091 | 1570
COc1nc(OCCF)ncc1-c1nc2c(n1C(C)C)[C@]1(C(=O)Nc3cc(Cl)ccc31)N(c1cc(Cl)ccc1C)C2=O [Example R-140, (R)-6-chloro-5′-(5-chloro-2-methylphenyl)-2′-(2-(2-fluoroethoxy)-4-methoxypyrimidin-5-yl)-3′-isopropyl-3′H-spiro[dihydroindole-3,4′-pyrrolo[3,4-d]imidazole]-2,6′(5′H)-dione] | 0.147 | 863
COc1cc(C2CC2)ncc1-c1nc2c(n1C(C)C)[C@]1(C(=O)Nc3cc(Cl)ccc31)N(c1cc(Cl)cnc1C)C2=O [Example R-143, (R)-6-chloro-5′-(5-chloro-2-methylpyridin-3-yl)-2′-(6-cyclopropyl-4-methoxypyridin-3-yl)-3′-isopropyl-3′H-spiro[dihydroindole-3,4′-pyrrolo[3,4-d]imidazole]-2,6′(5′H)-dione] | 0.214 | 6220
COc1cc(C(F)(F)F)ccc1-c1nc2c(n1C(C)C)[C@]1(C(=O)Nc3cc(Cl)ccc31)N(c1cc(Cl)cnc1C)C2=O [Example R-144, (R)-6-chloro-5′-(5-chloro-2-methylpyridin-3-yl)-3′-isopropyl-2′-(2-methoxy-4-(trifluoromethyl)phenyl)-3′H-spiro[dihydroindole-3,4′-pyrrolo[3,4-d]imidazole]-2,6′(5′H)-dione] | 0.119 | 2450
COc1nc(OCC(F)F)ncc1-c1nc2c(n1C(C)C)[C@]1(C(=O)Nc3cc(Cl)ccc31)N(c1cc(Cl)ccc1C)C2=O [Example R-147, (R)-6-chloro-5′-(5-chloro-2-methylphenyl)-2′-(2-(2,2-difluoroethoxy)-4-methoxypyrimidin-5-yl)-3′-isopropyl-3′H-spiro[dihydroindole-3,4′-pyrrolo[3,4-d]imidazole]-2,6′(5′H)-dione] | 0.119 | 5740
COc1cc(OC(F)F)ncc1-c1nc2c(n1C(C)C)[C@]1(C(=O)Nc3cc(Cl)ccc31)N(c1cc(Cl)ccc1C)C2=O [Example R-150, (R)-6-chloro-5′-(5-chloro-2-methylphenyl)-2′-(6-(difluoromethoxy)-4-methoxypyridin-3-yl)-3′-isopropyl-3′H-spiro[dihydroindole-3,4′-pyrrolo[3,4-d]imidazole]-2,6′(5′H)-dione] | 0.377 | 5700
COc1cc(N(C)C)ncc1-c1nc2c(n1C(C)C)[C@]1(C(=O)Nc3cc(Cl)ccc31)N(c1cc(Cl)cnc1C)C2=O [Example R-155, (R)-6-chloro-5′-(5-chloro-2-methylpyridin-3-yl)-2′-(6-(dimethylamino)-4-methoxypyridin-3-yl)-3′-isopropyl-3′H-spiro[dihydroindole-3,4′-pyrrolo[3,4-d]imidazole]-2,6′(5′H)-dione] | 0.0964 | 1520
COc1nc(N(C)C)ccc1-c1nc2c(n1C(C)C)[C@]1(C(=O)Nc3cc(Cl)ccc31)N(c1cc(Cl)ccc1C)C2=O [Example R-157, (R)-6-chloro-5′-(5-chloro-2-methylphenyl)-2′-(6-(dimethylamino)-2-methoxypyridin-3-yl)-3′-isopropyl-3′H-spiro[dihydroindole-3,4′-pyrrolo[3,4-d]imidazole]-2,6′(5′H)-dione] | 0.37 | 1800
COc1nc(C2CC2)ncc1-c1nc2c(n1C(C)C)[C@]1(C(=O)Nc3cc(Cl)ccc31)N(c1cc(Cl)cnc1C)C2=O [Example R-159, (R)-6-chloro-5′-(5-chloro-2-methylpyridin-3-yl)-2′-(2-cyclopropyl-4-methoxypyrimidin-5-yl)-3′-isopropyl-3′H-spiro[dihydroindole-3,4′-pyrrolo[3,4-d]imidazole]-2,6′(5′H)-dione] | 0.468 | 5330
COc1cc(N(C)CCO)ccc1-c1nc2c(n1C(C)C)[C@]1(C(=O)Nc3cc(Cl)ccc31)N(c1cc(Cl)ccc1C)C2=O [Example R-162, (R)-6-chloro-5′-(5-chloro-2-methylphenyl)-2′-(4-((2-hydroxyethyl)(methyl)amino)-2-methoxyphenyl)-3′-isopropyl-3′H-spiro[dihydroindole-3,4′-pyrrolo[3,4-d]imidazole]-2,6′(5′H)-dione] | 0.12 | 782
COc1cc(OCCF)ncc1-c1nc2c(n1C(C)C)[C@]1(C(=O)Nc3cc(Cl)ccc31)N(c1cccc(Cl)c1)C2=O [Example R-177, (R)-6-chloro-5′-(3-chlorophenyl)-2′-(6-(2-fluoroethoxy)-4-methoxypyridin-3-yl)-3′-isopropyl-3′H-spiro[dihydroindole-3,4′-pyrrolo[3,4-d]imidazole]-2,6′(5′H)-dione] | 0.109 | 4250
CCOc1ncc(-c2nc3c(n2C(C)C)[C@]2(C(=O)Nc4cc(Cl)ccc42)N(c2cc(F)cc(Cl)c2)C3=O)c(OC)n1 [Example R-180, (R)-6-chloro-5′-(3-chloro-5-fluorophenyl)-2′-(2-ethoxy-4-methoxypyrimidin-5-yl)-3′-isopropyl-3′H-spiro[dihydroindole-3,4′-pyrrolo[3,4-d]imidazole]-2,6′(5′H)-dione] | 0.679 | 2170

From patent US11339171B2, “MDM2 inhibitors” (Gan & Lee Pharmaceuticals, priority 2017, dated 2022)
